Measured values published in ChEMBL document CHEMBL5346977, “Discovery of Novel d-(+)-Biotin-Conjugated Resorcinol Dibenzyl Ether-Based PD-L1 Inhibitors for Targeted Cancer Immunotherapy” (J Med Chem, 2023).
The source made the active and inactive calls. No cut-off for these calls is given here.

What was measured:
B16-F10 [1] = experiment: Antitumor immunity against mouse B16-F10 cells implanted in allogenic BALB/c mouse assessed as increase in CD3+ T cells at 50 mg/kg, ip by flow cytometric analysis (reference value: 2.51%); assay type: functional
[2] = Tmax in Sprague-Dawley rat at 1 mg/kg, iv administered as single dose and measured after 48 hrs by HPLC-MS/MS analysis; assay type: ADME, organism-based; conditions: in vivo
[3] = Drug concentration in kidney of C57BL/6 mouse implanted with mouse B16-F10 cells at 50 mg/kg, ip measured after 4 hrs by UPLC-MS/MS analysis; assay type: ADME, organism-based; conditions: read-out: Ct
[4] = Drug concentration in lung of C57BL/6 mouse implanted with mouse B16-F10 cells at 50 mg/kg, ip measured after 0.5 hrs by UPLC-MS/MS analysis; assay type: ADME, organism-based; conditions: read-out: Ct
[5] = MRT (0 to infinity) in C57BL/6 mouse at 50 mg/kg, ip measured after 4 hrs by HPLC-MS/MS analysis; assay type: ADME, organism-based; conditions: in vivo
[6] = Cmax in C57BL/6 mouse at 50 mg/kg, ip measured after 4 hrs by HPLC-MS/MS analysis; assay type: ADME, organism-based; parameters: dose 50 mg/kg, time 4 hrs, route ip; conditions: in vivo
Jurkat = experiment: Cytotoxicity against human Jurkat T cells assessed as reduction in cell viability at 1.1 to 10 uM incubated for 48 hrs by CCK-8 assay; assay type: toxicity, cell-based; conditions: dose 1.1-10 µM
[7] = Drug concentration in liver of C57BL/6 mouse implanted with mouse B16-F10 cells at 50 mg/kg, ip measured after 0.5 hrs by UPLC-MS/MS analysis; assay type: ADME, organism-based; conditions: read-out: Ct
[8] = Drug concentration in heart of C57BL/6 mouse implanted with mouse B16-F10 cells at 50 mg/kg, ip measured after 2 hrs by UPLC-MS/MS analysis; assay type: ADME, organism-based; conditions: read-out: Ct
[9] = Drug concentration in brain of C57BL/6 mouse implanted with mouse B16-F10 cells at 50 mg/kg, ip measured after 0.5 hrs by UPLC-MS/MS analysis; assay type: ADME, organism-based; conditions: read-out: Ct
B16-F10 [10] = experiment: Antitumor activity against mouse B16-F10 cells implanted in syngeneic C57BL/6 mouse assessed as decrease in tumor volume at 50 mg/kg, ip measured after 12 days relative to control; assay type: functional; parameters: scale not given: the % may be the effect or the level left; conditions: time 12 day
[11] = Initial drug concentration in Sprague-Dawley rat at 1 mg/kg, iv administered as single dose and measured after 48 hrs by HPLC-MS/MS analysis; assay type: ADME, organism-based; conditions: in vivo
[12] = Toxicity in syngeneic C57BL/6 mouse implanted with mouse B16-F10 cells assessed as effect on body weight at 50 mg/kg, ip measured after 12 days; assay type: organism-based; conditions: in vivo, 288 h, time 12 day
[13] = MRT (0 to t) in Sprague-Dawley rat at 20 mg/kg, po measured after 48 hrs by HPLC-MS/MS analysis; assay type: ADME, organism-based; conditions: in vivo
[14] = Drug concentration in heart of C57BL/6 mouse implanted with mouse B16-F10 cells at 50 mg/kg, ip measured after 1 hrs by UPLC-MS/MS analysis; assay type: ADME, organism-based; conditions: read-out: Ct
[15] = Clearance in Sprague-Dawley rat at 1 mg/kg, iv administered as single dose and measured after 48 hrs by HPLC-MS/MS analysis; assay type: ADME, organism-based; conditions: in vivo
[16] = Drug concentration in lung of C57BL/6 mouse implanted with mouse B16-F10 cells at 50 mg/kg, ip measured after 2 hrs by UPLC-MS/MS analysis; assay type: ADME, organism-based; conditions: read-out: Ct
[17] = Clearance in C57BL/6 mouse at 50 mg/kg, ip measured after 4 hrs by HPLC-MS/MS analysis; assay type: ADME, organism-based; conditions: in vivo
[18] = Half-life in Sprague-Dawley rat at 1 mg/kg, iv administered as single dose and measured after 48 hrs by HPLC-MS/MS analysis; assay type: ADME, organism-based; conditions: in vivo
[19] = Drug concentration in plasma of C57BL/6 mouse implanted with mouse B16-F10 cells at 50 mg/kg, ip measured after 0.5 hrs by UPLC-MS/MS analysis; assay type: ADME, organism-based
B16-F10 [20] = experiment: Antitumor activity against mouse B16-F10 cells implanted in allogenic BALB/c mouse assessed as increase in CXCL10 mRNA level in tumor at 50 mg/kg, ip by qPCR analysis; assay type: functional, organism-based
[21] = Drug concentration in kidney of C57BL/6 mouse implanted with mouse B16-F10 cells at 50 mg/kg, ip measured after 1 hrs by UPLC-MS/MS analysis; assay type: ADME, organism-based; conditions: read-out: Ct
[22] = Half-life in Sprague-Dawley rat at 20 mg/kg, po measured after 48 hrs by HPLC-MS/MS analysis; assay type: ADME, organism-based; conditions: in vivo
[23] = AUC (0 to infinity) in Sprague-Dawley rat at 1 mg/kg, iv administered as single dose and measured after 48 hrs by HPLC-MS/MS analysis; assay type: ADME, organism-based; parameters: dose 1 mg/kg, time 48 hrs, route iv; conditions: in vivo
[24] = Toxicity in allogenic BALB/c mouse implanted with mouse B16-F10 cells assessed as severe crypt necrosis in colon at 50 mg/kg, ip by H&E staining based analysis; assay type: organism-based; conditions: in vivo
[25] = Drug concentration in tumor of C57BL/6 mouse implanted with mouse B16-F10 cells at 50 mg/kg, ip measured after 0.5 hrs by UPLC-MS/MS analysis; assay type: ADME, organism-based, Neoplasm; conditions: read-out: Ct
[26] = Tmax in C57BL/6 mouse at 50 mg/kg, ip measured after 4 hrs by HPLC-MS/MS analysis; assay type: ADME, organism-based; conditions: in vivo
[27] = Drug concentration in tumor of C57BL/6 mouse implanted with mouse B16-F10 cells at 50 mg/kg, ip measured after 4 hrs by UPLC-MS/MS analysis; assay type: ADME, organism-based, Neoplasm; conditions: read-out: Ct
[28] = Drug concentration in brain of C57BL/6 mouse implanted with mouse B16-F10 cells at 50 mg/kg, ip measured after 4 hrs by UPLC-MS/MS analysis; assay type: ADME, organism-based; conditions: read-out: Ct
[29] = AUC (0 to t) in C57BL/6 mouse at 50 mg/kg, ip measured after 4 hrs by HPLC-MS/MS analysis; assay type: ADME, organism-based; parameters: time 4 hrs, dose 50 mg/kg, route ip; conditions: in vivo
HepG2 [30] = experiment: Antitumor activity against human HepG2 cells assessed as reduction in cell viability at 1.1 to 10 uM incubated for 48 hrs by CCK-8 assay; assay type: functional, cell-based; conditions: dose 1.1-10 µM
[31] = MRT (0 to infinity) in Sprague-Dawley rat at 1 mg/kg, iv administered as single dose and measured after 48 hrs by HPLC-MS/MS analysis; assay type: ADME, organism-based; conditions: in vivo
HepG2 [32] = experiment: Antitumor immunity activity against human HepG2 cells expressing human PD-L1 co-cultured with human Jurkat T cells expressing human PD-1 assessed as reduction in cell viability incubated for 48 hrs by CCK8 assay; assay type: functional, cell-based; conditions: dose 1.1-10 µM
B16-F10 [33] = experiment: Antitumor activity against mouse B16-F10 cells implanted in allogenic BALB/c mouse assessed as increase in CXCR3 mRNA level in tumor at 50 mg/kg, ip by qPCR analysis; assay type: functional, organism-based
[34] = Drug concentration in plasma of C57BL/6 mouse implanted with mouse B16-F10 cells at 50 mg/kg, ip measured after 4 hrs by UPLC-MS/MS analysis; assay type: ADME, organism-based
B16-F10 [35] = experiment: Antitumor activity against mouse B16-F10 cells implanted in BALB/c mouse assessed as reduction in tumor volume at 50 mg/kg, ip administered once daily for 14 days relative to control; assay type: functional; parameters: scale not given: the % may be the effect or the level left; conditions: time 14 day
[36] = Tmax in Sprague-Dawley rat at 20 mg/kg, po measured after 48 hrs by HPLC-MS/MS analysis; assay type: ADME, organism-based; conditions: in vivo

- Tmax [2]: 4.98 min
- concentration at 4 h [3]: 0.38 µg/mL
- concentration at 0.5 h [4]: 0.285 µg/mL
- MRT inf [5]: 9.84 h
- Cmax [6]: 1.54 µg/mL
- concentration at 0.5 h [7]: 1.97 µg/mL
- concentration at 2 h [8]: 0.0124 µg/mL
- concentration at 0.5 h [9]: 0.0025 µg/mL
- C0 at 48 h [11]: 0.257 µg/mL
- MRT last at 48 h [13]: 6.9 h
- concentration at 1 h [14]: 0.0159 µg/mL
- clearance [15]: 1.3 L/h/kg
- concentration at 2 h [16]: 0.0949 µg/mL
- CL [17]: 7.353 L/h/kg
- half-life [18]: 18.1 h
- concentration at 0.5 h [19]: 0.91 µg/mL
- concentration at 1 h [21]: 0.219 µg/mL
- half-life [22]: 2.6 h
- AUC [23]: 0.832 µg·h/mL
- concentration at 0.5 h [25]: 0.0155 µg/mL
- Tmax [26]: 2.4 h
- concentration at 4 h [27]: 0.0942 µg/mL
- concentration at 4 h [28]: 0.0046 µg/mL
- AUCt [29]: 4673.237 µg/L/h
- MRT inf [31]: 19.9 h
- concentration at 4 h [34]: 1.46 µg/mL
- Tmax [36]: 3.3 h
SMILES: Cc1c(COc2cc(OCc3cccc(C#N)c3)c(CN3CCCCC3C(=O)NCCNC(=O)CCCC[C@@H]3SC[C@@H]4NC(=O)N[C@@H]43)cc2Cl)cccc1-c1ccccc1 (some centres not stated)
- Activity (B16-F10 [1]): 24.9%
- Activity (Jurkat): Non-Toxic
- Activity (B16-F10 [10]): 52.6%
- Activity [12]: Non-Toxic
- Activity (B16-F10 [20]): Active
- Activity [24]: Non-Toxic
- Activity (HepG2 [30]): inactive
- Activity (HepG2 [32]): Dose-Dependent Effect
- Activity (B16-F10 [33]): Active
- Activity (B16-F10 [35]): 76.5%
